For one series, the system named is HSV-1 (strain 377, TK+). As to the kind of experiment: Antiviral activity against HSV-1. It is filed as cell-based. The settings on record: for VR / EC50: HSV-1, range of tests; for EC50: Human alphaherpesvirus 1, read-out: Mic50. As for the experimental part:
(§1) D-2'-CdG and L-2'-CdG were tested, alongside D,L-2'-CdG, against both HSV-1 (strain 377, TK+; obtained from Dr. Earl Kern, University of Alabama) and HSV-2 (strain MS, TK+; also obtained from Dr. Earl Kern). In these tests (Table 5), Ara-A and acyclovir (ACV) were the positive control drugs. In four tests vs. HSV-1, the antiviral activity (VR) and potency (MIC50) of D-2'-CdG were approximately the same as those of racemic 2-CdG. L-2'-CdG was only modestly active.

The next series concerns the target T1, HSV-1 TK (Human herpesvirus 1, UniProt P0DTH5).
T1 construct: HSV thymidine kinase (HSV TK) was isolated from HELA (BU25) cells infected with the SW148 strain of HSV-1; made in house; host or cells: HeLa (BU25) thymidine-kinase-deficient cells infected with HSV-1 strain S148/SW148
As to the kind of experiment: Competitive inhibition of [3H]-thymidine phosphorylation by partially purified HSV-1 TK. Format: biochemical. As for the experimental part:
The Ki's were determined from a plot of the slope of each line versus the concentration of the competitor (D-, L, or D,L-2'CdG) and are summarized below: TABLE 2

In the next series the test system is HBV. The experiment in a line: HBV DNA production and replication in 2.2.15 cell cultures. It is filed as cell-based, Hepatitis B virus (HBV). The settings on record: for INTRACELLULAR HBV DNA INTEG. / INTRACELLULAR HBV DNA MONO. / INTRACELLULAR HBV DNA RI: 24 hours following 10th day of treatment; for HBV DNA IN CULTURE MEDIUM DAY 0: day 0 of treatment. As for the experimental part:
2'-CdG was tested at three concentrations (50 ng/ml, 500 ng/ml, and 5 ug/ml) against the HBV-producing, human liver cell line, 2.2.15 (Sells et al., J. Virol. 62:2836, 1989). A racemic (D,L) preparation, as well as the purified D and L isomers were tested. For these analyses compounds were tested in duplicate at all concentrations. Ara-AMP and ddG (2'3'-dideoxyguanosine) were used as HBV inhibitory control compounds. […] The nucleoside analog, ddG was used as an additional control compound since ddG has activity against duck hepatitis B virus in chronically infected Peking ducks (Lee et al., Antimicrob. Agents Chemother. 33:336, 1989) and 2'-CdG is also a deoxyguanosine analog.
2.2.15 cells were seeded in 6 well culture plates and grown to confluence over a 10 day period in medium with 5% FBS. Test compounds were then added daily for a continuous 10 day period in medium with 1% dialyzed FBS. […] Compounds were tested, in duplicate cultures, at 3 concentrations covering a 100-fold range. Culture medium (changed daily during the treatment period) was collected and stored for analysis of extracellular (virion) HBV DNA from days 0, 3, 6, and 10 of the treatment period. This allowed for an analysis of the level of HBV virion production during discrete 24 hour intervals and reduced the potential for the buildup of toxic metabolites derived from the test compounds. Treated cells were lysed following the 10th day of treatment for the analysis of intracellular HBV genomic forms. HBV DNA was analyzed in a quantitative manner for (i) overall levels (both extracellular and intracellular DNA) and (ii) the relative rate of HBV replication (intracellular DNA only).
HBV DNA levels were measured by comparison to known amounts of HBV DNA standards applied to every nitrocellulose filter (gel or slot blot) using an AMBIS Beta Scanner. Standard curves, generated by multiple analyses, were used to correlate CPM measurements with relative levels of target HBV DNA. The levels of HBV DNA in each of three classes of intracellular viral genomic forms were individually quantitated: integrated HBV DNA, episomal monomeric genomes and HBV DNA replication intermediates (RI). Integrated HBV DNA was used to normalize the relative amounts of DNA in each lane because the levels of this class of HBV DNA would be expected to remain constant on a per cell basis. The levels of the monomeric HBV genomes and RI were used as an indicator of the relative level of HBV replication.

Series [1] has as its system MRC5 cell monolayer cultures. The experiment in a line: Drug cytotoxicity (gross morphology) in MRC5 cell monolayer cultures. It is filed as cell-based. As for the experimental part:
(§2) The D- and L-enantiomers of 2'-CdG were prepared from racemic C-2,6-DAPR by an enzymatic method as described above Secrist et al. (J. Med. Chem. 30:746, 1987). The effectiveness of racemic-2'-CdG and of D-2'-CdG in reducing CMV yields in MRC5 cell monolayer cultures was determined by a plaque assay with the results set forth in tables 6 and 7.

The test system of another series is CMV. As to the kind of experiment: CMV yield reduction in MRC5 cell monolayer cultures (plaque assay). It is filed as cell-based, human CMV. Conditions: for CMV Yield: virus control 5.5. As for the experimental part: as §2
Series [2] concerns MRC5 cell monolayer cultures. As to the kind of experiment: Drug cytotoxicity (gross morphology) in MRC5 cell monolayer cultures. It is filed as cell-based. This is another data set of the same source.
For the next series, the system named is HSV-2 (strain MS, TK+). The experiment in a line: Antiviral activity against HSV-2. Format: cell-based. Conditions: HSV-2; for EC50: Human alphaherpesvirus 2, read-out: Mic50. As for the experimental part:
as §1
These compounds were tested against HSV-2(TK^+). The VR of ACV was somewhat higher than the VR values of D-2'-CdG and D,L-2'-CdG, but the values of MIC50 of the two forms of 2'-CdG were lower. In addition, experiments comparing the antiviral activity D-2'-CdG with acyclovir against HSV-1 in human foreskin fibroblasts have shown an even greater potency, in favor of D-2'-CdG.

Molecules are shown by their SMILES. In brackets after ≈: the same amount, converted by molar mass. Several values for one entry are separate records, joined by “and”; a condition that tells them apart may be missing. Equal entries are not always repeated.

T1 sequence (P0DTH5 whole entry): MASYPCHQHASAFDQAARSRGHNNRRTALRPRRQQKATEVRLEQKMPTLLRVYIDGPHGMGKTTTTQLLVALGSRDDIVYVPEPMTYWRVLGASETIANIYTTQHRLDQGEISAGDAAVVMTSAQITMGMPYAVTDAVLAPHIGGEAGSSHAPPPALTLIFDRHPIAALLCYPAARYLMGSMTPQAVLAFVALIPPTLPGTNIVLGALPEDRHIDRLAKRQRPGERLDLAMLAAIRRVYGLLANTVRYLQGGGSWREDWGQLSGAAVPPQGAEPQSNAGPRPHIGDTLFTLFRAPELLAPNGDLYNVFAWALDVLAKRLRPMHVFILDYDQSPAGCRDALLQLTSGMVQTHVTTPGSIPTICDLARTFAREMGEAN

For the compound `Nc1nc2c(ncn2[C@@H]2C[C@H](CO)[C@@H](O)C2)c(=O)[nH]1` (racemic) [D,L-2'-CdG, (±)-2-amino-1,9-dihydro-[(1α,3β,4α)-3-hydroxy-4(hydroxymethyl)cyclopentyl]-6H-purin-6-one], the VR in the series on HSV-1 (strain 377, TK+) is recorded as 5.3-7.0; in the series on HSV-2 (strain MS, TK+), 3.7. The EC50 is 0.2 to 0.3 µg/mL (≈ 0.754 to 1.13 µM) with HSV-1 (strain 377, TK+); 0.069 µg/mL (≈ 0.26 µM) in the series on CMV (Human betaherpesvirus 5, MRC5 cells, read-out: MIC50); 2.6 µg/mL (≈ 9.8 µM) in the series on HSV-2 (strain MS, TK+). Further, the “potency relative to ACV” value in the series with HSV-1 (strain 377, TK+) (more potent than ACV) was 5-10 times. Besides, at HSV-1 TK, the affinity, expressed as Ki, was 3 µM. Also, the “INTRACELLULAR HBV DNA INTEG.” value with HBV (50ng/ml) was 1.3 PG/UG CELL DNA and 1.2 PG/UG CELL DNA; in the series with HBV (500ng/ml), 1.4 PG/UG CELL DNA and 1.5 PG/UG CELL DNA; in the series with HBV (5 ug/ml), 1.0 PG/UG CELL DNA and 1.6 PG/UG CELL DNA. Further, the “INTRACELLULAR HBV DNA MONO.” value in the series on HBV (50ng/ml) is 2.1 PG/UG CELL DNA and 1.4 PG/UG CELL DNA; with HBV (500ng/ml) it was 1.8 PG/UG CELL DNA and 2.0 PG/UG CELL DNA; with HBV (5 ug/ml), 1.9 PG/UG CELL DNA and 1.7 PG/UG CELL DNA. Further, the “INTRACELLULAR HBV DNA RI” value in the series on HBV (50ng/ml) is 12 PG/UG CELL DNA and 18 PG/UG CELL DNA. Further, the “HBV DNA IN CULTURE MEDIUM DAY 0” value with HBV (50ng/ml) was 120 pg/mL and 95 pg/mL; in the series with HBV (500ng/ml), 89 pg/mL and 90 pg/mL; with HBV (5 ug/ml), 87 pg/mL and 88 pg/mL. Moreover, the “HBV DNA IN CULTURE MEDIUM DAY 3” value was 88 pg/mL and 75 pg/mL in the series on HBV (50ng/ml); 41 pg/mL and 55 pg/mL with HBV (500ng/ml); 16 pg/mL and 24 pg/mL in the series on HBV (5 ug/ml). Moreover, the “HBV DNA IN CULTURE MEDIUM DAY 6” value in the series on HBV (50ng/ml) is 55 pg/mL and 77 pg/mL; in the series with HBV (5 ug/ml), 0.3 pg/mL and 0.4 pg/mL. The “HBV DNA IN CULTURE MEDIUM DAY 10” value in the series on HBV (50ng/ml) is 11 pg/mL and 6 pg/mL; with HBV (500ng/ml), 0.1 pg/mL and 0.2 pg/mL; in the series with HBV (5 ug/ml), 0 pg/mL. The MIC with HBV (Hepatitis B virus, 240 h, HBV replication in 2.2.15 cells, read-out: minimal inhibitory concentration) is approximately 0.05 µg/mL (≈ 0.188 µM). For the same compound, the “Drug Cytotoxicity (Gross Morphology)” value in series [1] (0.032 µg/mL) is 0; in series [1] (0.1 µg/mL) it was 0; in series [1] (1.0 µg/mL), 0; in series [1] (32 µg/mL), “toxic”; in series [2] (0.32 µg/mL), 0; in series [2] (3.2 µg/mL) it was “v. sl. toxicity”. Moreover, the “Drug Cytotoxicity (Gross Morphology)” value in series [2] (10 µg/mL) is listed as “sl. toxicity”. In addition, the “CMV Yield” value with CMV (0.032 µg/mL) was 5.4 log10CCID50/mL; in the series with CMV (0.1 µg/mL) it was 5.0 log10CCID50/mL; with CMV (0.32 µg/mL), 4.5 log10CCID50/mL; in the series on CMV (1.0 µg/mL), 3.6 log10CCID50/mL; in the series on CMV (3.2 µg/mL) it was 1.0 log10CCID50/mL; in the series with CMV (10 µg/mL), 0 log10CCID50/mL. Besides, in the series on CMV (Human betaherpesvirus 5, MRC5, 0.032 µg/mL, read-out: Reduction (%) of CPE by CdG at Time of Harvest), the inhibition at 0.032 µg/mL stood at 0%. Besides, in the series with CMV (Human betaherpesvirus 5, MRC5, 0.1 µg/mL, read-out: Reduction (%) of CPE by CdG at Time of Harvest), the inhibition at 0.1 µg/mL worked out at 0%. In addition, the inhibition at 0.32 µg/mL in the series with CMV (Human betaherpesvirus 5, MRC5, 0.32 µg/mL, read-out: Reduction (%) of CPE by CdG at Time of Harvest) came out at 20%. For the same compound, the inhibition at 1 µg/mL in the series with CMV (Human betaherpesvirus 5, MRC5, 1.0 µg/mL, read-out: Reduction (%) of CPE by CdG at Time of Harvest) was determined as 95%. Also, in the series on CMV (Human betaherpesvirus 5, MRC5, 3.2 µg/mL, read-out: Reduction (%) of CPE by CdG at Time of Harvest), the inhibition at 3.2 µg/mL was 100%. For the same compound, in the series with CMV (Human betaherpesvirus 5, MRC5, 10 µg/mL, read-out: Reduction (%) of CPE by CdG at Time of Harvest), the inhibition at 10 µg/mL worked out at 100%.

`Nc1ncnc2c1ncn2[C@@H]1O[C@H](COP(=O)(O)O)[C@@H](O)[C@@H]1O` [ARA-AMP, adenine arabinoside monophosphate, reference compound]: in the series with HBV (300 UG/ML), the “INTRACELLULAR HBV DNA INTEG.” value was 1.3 PG/UG CELL DNA and 1.1 PG/UG CELL DNA; the “INTRACELLULAR HBV DNA MONO.” value stood at 0.1 PG/UG CELL DNA; the “INTRACELLULAR HBV DNA RI” value is 0.2 PG/UG CELL DNA and 0.3 PG/UG CELL DNA; the “HBV DNA IN CULTURE MEDIUM DAY 0” value is 100 pg/mL and 95 pg/mL. In addition, in the series with HBV (300 UG/ML), the “HBV DNA IN CULTURE MEDIUM DAY 3” value was 25 pg/mL and 30 pg/mL; the “HBV DNA IN CULTURE MEDIUM DAY 6” value worked out at 0 pg/mL; the “HBV DNA IN CULTURE MEDIUM DAY 10” value was found to be 0 pg/mL.

On to `Nc1nc2c(ncn2COCCO)c(=O)[nH]1` [Acyclovir, acyloguanosine, reference compound], for which, in the series with HSV-1 (strain 377, TK+), the VR is listed as 5.7-6.5 and the EC50 lay within 1.5 to 2.9 µg/mL (≈ 6.66 to 12.9 µM). In the series with HSV-2 (strain MS, TK+), the VR came to 4.5 and the EC50 worked out at 5.3 µg/mL (≈ 23.5 µM).

For orientation: Ki means a measure of affinity in units of concentration, obtained from inhibition or displacement.

Source of the values: EP0684822B1, “CARBOCYCLIC DEOXYGUANOSINE ANALOGS FOR THE TREATMENT OF VIRAL INFECTIONS” (SOUTHERN RESEARCH INSTITUTE, priority 1993, dated 1994).
